Measured values published in US10844013B2, “Phenyl amino piperidine mTORC inhibitors and uses thereof” (Navitor Pharmaceuticals, Inc., priority 2016, dated 2020).
Structures can show the parent of a compound that is named as a salt. Where two headings read alike, the source gives them in different places.

Legend:
Format in all cases: cell-based
[1] = system: pS6K1 (p-p70 S6 Kinase (Thr389)) in MCF-7 cells; assay: AlphaLISA Ultra pS6K1 assay; details: 2 hours compound incubation
Outline: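 MCF-7 cells seeded 20–24 h, medium refreshed 2 h, then treated 2 h with compound (0.5% DMSO final). Lysates probed for Thr389-phosphorylated p70 S6K by AlphaLISA Ultra, 2 h acceptor then 2 h donor bead incubation, read on a multimode reader.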

[2] = system: pAKT (p-Akt 1/2/3 (Ser473)) in MCF-7 cells; assay: AlphaLISA Ultra pAKT assay
Outline: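 AlphaLISA read-out (2 h acceptor-bead, then 2 h donor-bead incubation) on thawed lysates of MCF-7 cells exposed to compounds for 2 h in 0.5% DMSO. Cells had been plated 20-24 h and given fresh medium 2 h before dosing.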

MCF-7 cells = assay: Radioactive glucose uptake in MCF-7 cells; details: Homo sapiens, MCF7, 3H-2DG uptake
Experimental: Example 157: Radioactive Glucose Uptake in MCF-7 Cells
Assay Protocol • 1. Seed approximately 12,000 MCF-7 cells cultured without insulin per well in 96-well plates (BIOCOAT, #356690) and let the cells sit in hood for 30 min. (Cell culture medium: DMEM+10% FBS). • 2. Put the cell culture plates in TC incubator (5% CO2, 37° C.) and incubate overnight. • 3. Take out the cell plates and wash with prewarmed KRH buffer (37° C.) three times using BioTek plate washer. (KRH buffer preparation: 136 mM NaCl, 4.7 mM KCl, 1.25 mM MgCl2, 1.2 mM CaCl2), 20 mM HEPES, 0.1 mg/ml sodium pyruvate, 0.1% BSA, pH 7.4). • 4. Compound preparation and treatment: • a) Add 12 ul compound stock in 100% DMSO to the first column of Echo LDV plate • b) Serially dilute the compound solution in 100% DMSO (4 uL+8 uL DMSO) using Bravo for 9 doses • c) Dispense 350 nL compounds using Echo to the working plate. • d) i) Without compound preincubation condition, dispense 116 uL KRH buffer containing tritiated 2-deoxy-D-glucose (3H-2DG) and 2-deoxy-D-glucose (2DG) to the working plate and mix. • ii. With compound preincubation condition, dispense 110 uL KRH buffer only to the working plates and mix • e) Keep the compound working plate at 37° C. incubator until use • 5. Discard the KRH buffer (cells were kept in KRH buffer for 10-15 min before 2-DG addition) and transfer 100 uL compound working solution out to the cell culture plate using Bravo. Incubate for 20 mins at 37° C. (2DG final at 0.2 mM, 3H-2DG at 10 uCi/mL). • 6. Add prewarmed 50 uL KRH buffer (37° C.) containing 60 mM cold 2DG to the wells to stop the 2DG uptake using Multidrop combi • 7. Wash the cells with prewarmed PBS three times using BioTek plate washer • 8. Add 50 uL lysis buffer (0.1 M NaOH) into the assay plate to lyse the cells using Bravo and shake at 800 rpm for 30 min. • 9. Mix and transfer 20 uL lysate to a new white plate (Corning, #3610) and add 200 uL MicroScint-20 using Bravo • 10. Shake the plate at 1000 rpm for 30 min and count in a MicroBeta plate reader.

[3] = Homo sapiens, MCF7, 2 hours compound incubation

| Structure (SMILES) | IC50 ([1]; Homo sapiens, MCF7, 2 h) | IC50 [2, 3] | IC50 (MCF-7 cells) | IC50 ([1]; read-out: pS6K1 in MCF7: IC50) | IC50 ([2]; 2 hours compound incubation, read-out: pAKT in MCF7: IC50) |
| --- | --- | --- | --- | --- | --- |
| Cc1nc(C)c(C(=O)N2CCN(c3ccccc3)[C@H](CO)C2)c(C)c1NC1CCN(c2ncccc2Cl)CC1 [I-165, [(2S)-4-(5-{[1-(3-chloropyridin-2-yl)piperidin-4-yl]amino}-2,4,6-trimethyl-pyridine-3-carbonyl)-1-phenyl-piperazin-2-yl]MeOH] |  |  |  | 10 to 1000 nM | > 10 µM |
| Cc1cc(C)c(C(=O)N2CCN(c3cccnc3[S@](C)(=N)=O)CC2)c(C)c1NC1CCN(c2ncccc2Cl)CC1 [I-175, (R)-(3-(4-(3-((1-(3-chloropyridin-2-yl)piperidin-4-yl)amino)-2,4,6-trimethylbenzoyl)piperazin-1-yl)pyridin-2-yl)(imino)(methyl)-λ^6-sulfanone Trifluoroacetate Salt] | 10 to 1000 nM | > 10 µM |  |  |  |
| Cc1cc(C)c(C(=O)N2CCN(c3ncccc3S(N)(=O)=O)CC2)c(C)c1N[C@H]1CCN(c2ccccc2C#N)C[C@H]1C [I-178, 2-(4-(3-(((3R,4S)-1-(2-cyanophenyl)-3-methylpiperidin-4-yl)amino)-2,4,6-trimethylbenzoyl)piperazin-1-yl)pyridine-3-sulfonamide] | 10 to 1000 nM | > 10 µM |  |  |  |
| Cc1cc(C)c(C(=O)N2CCN(c3ncccc3S(N)(=O)=O)CC2)c(C)c1N[C@@H]1CCN(c2ccccc2C#N)C[C@@H]1C [I-179, 2-(4-(3-(((3S,4R)-1-(2-cyanophenyl)-3-methylpiperidin-4-yl)amino)-2,4,6-trimethylbenzoyl)piperazin-1-yl)pyridine-3-sulfonamide] | 10 to 1000 nM | > 10 µM |  |  |  |
| Cc1cc(C)c(C(=O)N2CCN(c3ncccc3S(N)(=O)=O)CC2)c(C)c1N[C@@H]1CCN(c2ccccc2C#N)C[C@H]1C [I-180, 2-(4-(3-(((3R,4R)-1-(2-cyanophenyl)-3-methylpiperidin-4-yl)amino)-2,4,6-trimethylbenzoyl)piperazin-1-yl)pyridine-3-sulfonamide] | 10 to 1000 nM | > 10 µM |  |  |  |
| Cc1cc(C)c(C(=O)N2CCN(c3ncccc3S(N)(=O)=O)CC2)c(C)c1N[C@H]1CCN(c2ccccc2C#N)C[C@@H]1C [I-181, 2-(4-(3-(((3S,4S)-1-(2-cyanophenyl)-3-methylpiperidin-4-yl)amino)-2,4,6-trimethylbenzoyl)piperazin-1-yl)pyridine-3-sulfonamide] | 10 to 1000 nM | > 10 µM |  |  |  |
| Cc1cc(C)c(C(=O)N2CCN(c3ccccn3)[C@H](CO)C2)cc1NC1CCN(c2ccccc2OC(F)(F)F)CC1 [I-183, (S)-(2,4-dimethyl-5-(1-(2-(trifluoromethoxy)phenyl)piperidin-4-ylamino)phenyl)(3-(hydroxymethyl)-4-(pyridin-2-yl)piperazin-1-yl)methanone] | 10 to 1000 nM | > 10 µM |  |  |  |
| Cc1cc(C)c(C(=O)N2CCN(c3ccccn3)[C@H](CO)C2)cc1NC1CCN(c2ccccc2OC(F)F)CC1 [I-184, (S)-(5-(1-(2-(difluoromethoxy)phenyl)piperidin-4-ylamino)-2,4-dimethylphenyl)(3-(hydroxymethyl)-4-(pyridin-2-yl)piperazin-1-yl)methanone] | 10 to 1000 nM | > 10 µM |  |  |  |
| Cc1cc(C)c(C(=O)N2CCN(c3ncccc3S(N)(=O)=O)CC2)c(C)c1NC1CCN(c2ncccc2Cl)CC1 [I-186, 2-(4-(3-(1-(3-chloropyridin-2-yl)piperidin-4-ylamino)-2,4,6-trimethylbenzoyl)piperazin-1-yl)pyridine-3-sulfonamide] | 10 to 1000 nM | > 10 µM |  |  |  |
| Cc1cc(C)c(C(=O)N2CCN(c3ncccc3S(N)(=O)=O)C[C@@H]2C)c(C)c1NC1CCN(c2ccccc2C#N)CC1 [I-188, (S)-2-(4-(3-(1-(2-cyanophenyl)piperidin-4-ylamino)-2,4,6-trimethylbenzoyl)-3-methylpiperazin-1-yl)pyridine-3-sulfonamide] | 1000 to 3000 nM | > 10 µM |  |  |  |
| Cc1cc(C)c(C(=O)N2CCN(c3cccc(F)c3[S@@](C)(=N)=O)C[C@@H]2C)c(C)c1NC1CCN(c2ccccc2C#N)CC1 [I-189, 2-(4-(3-((S)-4-(3-fluoro-2-((S)-S-methylsulfonimidoyl)phenyl)-2-methylpiperazine-1-carbonyl)-2,4,6-trimethylphenylamino)piperidin-1-yl)benzonitrile] | 10 to 1000 nM | > 10 µM |  |  |  |
| Cc1cc(C)c(C(=O)N2CCN(c3cccc(F)c3[S@](C)(=N)=O)C[C@@H]2C)c(C)c1NC1CCN(c2ccccc2C#N)CC1 [I-190, 2-(4-(3-((S)-4-(3-fluoro-2-((R)-S-methylsulfonimidoyl)phenyl)-2-methylpiperazine-1-carbonyl)-2,4,6-trimethylphenylamino)piperidin-1-yl)benzonitrile] | 10 to 1000 nM | > 10 µM |  |  |  |

The next lines start with results.

| IC50 ([1]; Homo sapiens, MCF7, 2 h) | IC50 [2, 3] | IC50 (MCF-7 cells) | Structure (SMILES) | IC50 ([1]; read-out: pS6K1 in MCF7: IC50) | IC50 ([2]; 2 hours compound incubation, read-out: pAKT in MCF7: IC50) |
| --- | --- | --- | --- | --- | --- |
| 1000 to 3000 nM | > 10 µM |  | Cc1cc(C)c(C(=O)N2CCN(c3ccccc3S(N)(=O)=O)CC2)cc1N[C@H]1CCN(c2ccccc2C#N)C[C@H]1C [I-169, 2-(4-(5-(((3R,4S)-1-(2-cyanophenyl)-3-methylpiperidin-4-yl)amino)-2,4-dimethylbenzoyl)piperazin-1-yl)benzenesulfonamide] |  |  |
| 10 to 1000 nM | > 10 µM |  | Cc1cc(C)c(C(=O)N2CCN(c3ccccc3S(N)(=O)=O)CC2)cc1N[C@@H]1CCN(c2ccccc2C#N)C[C@H]1C [I-170, 2-(4-(5-(((3R,4R)-1-(2-cyanophenyl)-3-methylpiperidin-4-yl)amino)-2,4-dimethylbenzoyl)piperazin-1-yl)benzenesulfonamide] |  |  |
| 3000 to 5000 nM | > 10 µM |  | Cc1cc(C(F)(F)F)c(NC2CCN(c3ccccc3C#N)CC2)cc1C(=O)N1CCN(c2cccnc2S(N)(=O)=O)CC1 [I-172, 3-(4-(5-((1-(2-cyanophenyl)piperidin-4-yl)amino)-2-methyl-4-(trifluoromethyl)benzoyl)piperazin-1-yl)pyridine-2-sulfonamide] |  |  |
| 10 to 1000 nM | > 10 µM |  | Cc1cc(C)c(C(=O)N2CCN(c3c(F)cc(F)cc3S(N)(=O)=O)CC2)cc1NC1CCN(c2ccccc2C#N)CC1 [I-174, 2-(4-(5-((1-(2-cyanophenyl)piperidin-4-yl)amino)-2,4-dimethylbenzoyl)piperazin-1-yl)-3,5-difluorobenzenesulfonamide] |  |  |
| 1000 to 3000 nM | > 10 µM |  | Cc1cc(C)c(C(=O)N2CCN(c3nnco3)[C@H](CO)C2)cc1NC1CCN(c2ccccc2C#N)CC1 [I-177, (S)-2-(4-((5-(3-(hydroxymethyl)-4-(1,3,4-oxadiazol-2-yl)piperazine-1-carbonyl)-2,4-dimethylphenyl)amino)piperidin-1-yl)benzonitrile] |  |  |
| 10 to 1000 nM | > 10 µM |  | Cc1cc(C)c(C(=O)N2CCN(c3cccnc3S(N)(=O)=O)CC2)c(C)c1NC1CCN(c2ncccc2Cl)CC1 [I-185, 3-(4-(3-(1-(3-chloropyridin-2-yl)piperidin-4-ylamino)-2,4,6-trimethylbenzoyl)piperazin-1-yl)pyridine-2-sulfonamide] |  |  |
| > 10000 nM | > 10 µM |  | Cc1cc(C)c(C(=O)N2CCN(c3cccc(F)c3S(N)(=O)=O)CC2)cc1NC1CCN(c2c(F)cc(F)cc2C#N)CC1 [I-187, 2-(4-(5-(1-(2-cyano-4,6-difluorophenyl)piperidin-4-ylamino)-2,4-dimethylbenzoyl)piperazin-1-yl)-6-fluorobenzenesulfonamide] |  |  |
|  |  | 10 to 1000 nM | Cc1cc(C)c(C(=O)N2CCN(c3cccc(F)c3[S@](C)(=N)=O)C[C@@H]2C)c(C)c1NC1CCN(c2ccccc2C#N)CC1 [I-192, 2-(4-(3-((2S)-4-(3-fluoro-2-(S-methylsulfonimidoyl)phenyl)-2-methylpiperazine-1-carbonyl)-2,4,6-trimethylphenylamino)piperidin-1-yl)benzonitrile] |  |  |
| 1000 to 3000 nM | > 10 µM |  | Cc1cc(C)c(C(=O)N2CCN(c3ncccc3S(N)(=O)=O)C[C@@H]2C)c(C)c1NC1CCN(c2ccc(F)cc2C#N)CC1 [I-193, (S)-2-(4-(3-(1-(2-cyano-4-fluorophenyl)piperidin-4-ylamino)-2,4,6-trimethylbenzoyl)-3-methylpiperazin-1-yl)pyridine-3-sulfonamide] |  |  |
